Experimental data: US20240409585A1, “MACROCYCLIC IMMUNOMODULATORS” (priority 2021, published 2024)
Bridge positions count the residues as written; N and C are the ends. Square brackets hold non-standard residues; d marks the D form. Peptide text beside a SMILES is read from it. ξ: configuration not given here. Bip = N[C@@H](Cc1ccc(-c2ccccc2)cc1)C(=O)O; Bta = N[C@@H](Cc1csc2ccccc12)C(=O)O; Nva(4-oxo) = CC(=O)C[C@H](N)C(=O)O; ξW = NC(Cc1c[nH]c2ccccc12)C(=O)O; 3Pal = N[C@@H](Cc1cccnc1)C(=O)O; NMeA = CN[C@@H](C)C(=O)O; Dab = NCC[C@H](N)C(=O)O

Target: T1, PE-labeled human PD-L1-Ig binding to Jurkat cell line over-expressing human PD-1 (Jurkat-PD-1) (Homo sapiens, UniProt Q15116)
T1 construct: expressed in transfected cells; host or cells: Jurkat
Test: Jurkat-PD-1 Cell Binding High-Content Screening Assay (CBA): Method 1
Details: Jurkat HPDL1 PD1 IC50 (uM) (Method 1), Jurkat-hPD-1 cells, PE-labeled PD-L1-Ig 20 nM final

T1 sequence (Q15116 25-288): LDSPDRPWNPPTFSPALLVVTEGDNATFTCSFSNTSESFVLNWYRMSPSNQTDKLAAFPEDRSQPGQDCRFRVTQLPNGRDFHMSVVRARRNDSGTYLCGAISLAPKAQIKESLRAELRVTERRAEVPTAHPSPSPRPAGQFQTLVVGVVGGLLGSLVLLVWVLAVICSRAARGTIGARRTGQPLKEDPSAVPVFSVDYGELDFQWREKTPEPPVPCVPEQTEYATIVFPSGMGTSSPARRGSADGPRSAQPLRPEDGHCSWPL

Compound | IC50
CC(C)C[C@@H]1NC(=O)[C@H](CCN)NC(=O)[C@@H](CC(C)C)NC(=O)[C@H](C)N(C)C(=O)[C@H](CCCNC(=N)N)NC(=O)[C@H](Cc2ccc(-c3ccccc3)cc2)NC(=O)[C@H](C(C)C)NC(=O)[C@H](Cc2c[nH]c3ccccc23)NC(=O)[C@H](CC(=O)O)NC(=O)[C@H](Cc2ccc(O)cc2)NC(=O)[C@H](Cc2ccccc2)NC(=O)CSC[C@@H](C(=O)N[C@@H](C)C(N)=O)NC(=O)[C@H](CO)NC(=O)[C@H](C(C)C)NC1=O [Compound 1030] ({CH2CO}-FYDWV[Bip]R[NMeA][dL][Dab]LVSCA-NH2; thioether N-14) | 0.03 µM
CC(C)C[C@@H]1NC(=O)[C@H](CCN)NC(=O)[C@@H](CC(C)C)NC(=O)[C@H](C)N(C)C(=O)[C@H](CCCNC(=N)N)NC(=O)[C@H](Cc2ccc(-c3ccccc3)cc2)NC(=O)[C@H](C(C)C)NC(=O)[C@H](Cc2c[nH]c3ccccc23)NC(=O)[C@H](CC(=O)O)NC(=O)[C@H](Cc2ccc(O)cc2)NC(=O)[C@H](Cc2cccnc2)NC(=O)CSC[C@@H](C(=O)N[C@@H](C)C(N)=O)NC(=O)[C@H](CO)NC(=O)[C@H](C(C)C)NC1=O [Compound 1034] ({CH2CO}-[3Pal]YDWV[Bip]R[NMeA][dL][Dab]LVSCA-NH2; thioether N-14) | 0.05 µM

Same assay, conditions: Jurkat-hPD-1 cells, PE-labeled PD-L1-Ig 20 nM final; read-out: Jurkat HPDL1 PD1 IC50 (uM) (Method 1)

Compound | IC50
CC(C)C[C@@H]1NC(=O)[C@H](CCCNC(=N)N)NC(=O)[C@@H](Cc2ccc(O)cc2)NC(=O)[C@H](C)N(C)C(=O)[C@H](CCCNC(=N)N)NC(=O)[C@H](Cc2ccc(-c3ccccc3)cc2)NC(=O)[C@H](C(C)C)NC(=O)[C@H](Cc2c[nH]c3ccccc23)NC(=O)[C@H](CC(=O)O)NC(=O)[C@H](Cc2ccc(O)cc2)NC(=O)[C@H](Cc2ccccc2)NC(=O)CSC[C@@H](C(=O)NCC(N)=O)NC(=O)[C@H](CO)NC(=O)[C@H](C(C)C)NC1=O [Compound 1020] ({CH2CO}-FYDWV[Bip]R[NMeA][dY]RLVSCG-NH2; thioether N-14) | 0.07 µM
CC(C)C[C@@H]1NC(=O)[C@H](CCCNC(=N)N)NC(=O)[C@@H](Cc2cnc[nH]2)NC(=O)[C@H](C)N(C)C(=O)[C@H](CCCNC(=N)N)NC(=O)[C@H](Cc2ccc(-c3ccccc3)cc2)NC(=O)[C@H](C(C)C)NC(=O)[C@H](Cc2c[nH]c3ccccc23)NC(=O)[C@H](CC(=O)O)NC(=O)[C@H](Cc2ccc(O)cc2)NC(=O)[C@H](Cc2ccccc2)NC(=O)CSC[C@@H](C(=O)NCC(N)=O)NC(=O)[C@H](CO)NC(=O)[C@H](C(C)C)NC1=O [Compound 1022] ({CH2CO}-FYDWV[Bip]R[NMeA][dH]RLVSCG-NH2; thioether N-14) | 0.64 µM
CC(C)C[C@@H]1NC(=O)CSC[C@@H](C(=O)NCC(N)=O)NC(=O)[C@H](CO)NC(=O)[C@H](C(C)C)NC(=O)[C@H](CC(C)C)NC(=O)[C@H](CCCNC(=N)N)NC(=O)[C@@H](Cc2ccccc2)NC(=O)[C@H](C)N(C)C(=O)[C@H](CCCNC(=N)N)NC(=O)[C@H](Cc2ccc(-c3ccccc3)cc2)NC(=O)[C@H](C(C)C)NC(=O)[C@H](Cc2c[nH]c3ccccc23)NC(=O)[C@H](CC(=O)O)NC(=O)[C@H](Cc2ccc(O)cc2)NC1=O [Compound 1024] ({CH2CO}-LYDWV[Bip]R[NMeA][dF]RLVSCG-NH2; thioether N-14) | 0.15 µM
CC(C)C[C@@H]1NC(=O)[C@H](CCCNC(=N)N)NC(=O)[C@H](Cc2csc3ccccc23)NC(=O)[C@H](C)N(C)C(=O)[C@H](CCCNC(=N)N)NC(=O)[C@H](Cc2ccc(-c3ccccc3)cc2)NC(=O)[C@H](C(C)C)NC(=O)[C@H](Cc2c[nH]c3ccccc23)NC(=O)[C@H](CC(=O)O)NC(=O)[C@H](Cc2ccc(O)cc2)NC(=O)[C@H](CC(N)=O)NC(=O)CSC[C@@H](C(=O)NCC(N)=O)NC(=O)[C@H](CO)NC(=O)[C@H](C(C)C)NC1=O [Compound 1026] ({CH2CO}-NYDWV[Bip]R[NMeA][Bta]RLVSCG-NH2; thioether N-14) | 0.13 µM
CC(C)C[C@@H]1NC(=O)[C@H](CCCNC(=N)N)NC(=O)[C@H](Cc2csc3ccccc23)NC(=O)[C@H](C)N(C)C(=O)[C@H](CCCNC(=N)N)NC(=O)[C@H](Cc2ccc(-c3ccccc3)cc2)NC(=O)[C@H](C(C)C)NC(=O)[C@H](Cc2c[nH]c3ccccc23)NC(=O)[C@H](CC(=O)O)NC(=O)[C@H](Cc2ccc(O)cc2)NC(=O)[C@H](CCC(N)=O)NC(=O)CSC[C@@H](C(=O)NCC(N)=O)NC(=O)[C@H](CO)NC(=O)[C@H](C(C)C)NC1=O [Compound 1028] ({CH2CO}-QYDWV[Bip]R[NMeA][Bta]RLVSCG-NH2; thioether N-14) | 0.11 µM
CC(C)C[C@@H]1NC(=O)[C@H](CCCNC(=N)N)NC(=O)[C@@H](Cc2ccccc2)NC(=O)[C@H](C)N(C)C(=O)[C@H](CCCNC(=N)N)NC(=O)[C@H](Cc2ccc(-c3ccccc3)cc2)NC(=O)[C@H](C(C)C)NC(=O)[C@H](Cc2c[nH]c3ccccc23)NC(=O)[C@H](CC(=O)O)NC(=O)[C@H](Cc2ccc(O)cc2)NC(=O)[C@H](Cc2cnc[nH]2)NC(=O)CSC[C@@H](C(=O)NCC(N)=O)NC(=O)[C@H](CO)NC(=O)[C@H](C(C)C)NC1=O [Compound 1031] ({CH2CO}-HYDWV[Bip]R[NMeA][dF]RLVSCG-NH2; thioether N-14) | 0.09 µM

Second part, the compound after the results:

IC50 | Compound
0.14 µM | CC(C)C[C@@H]1NC(=O)[C@H](CCCNC(=N)N)NC(=O)C(Cc2c[nH]c3ccccc23)NC(=O)[C@H](C)N(C)C(=O)[C@H](CCCNC(=N)N)NC(=O)[C@H](Cc2ccc(-c3ccccc3)cc2)NC(=O)[C@H](C(C)C)NC(=O)[C@H](Cc2c[nH]c3ccccc23)NC(=O)[C@H](CC(=O)O)NC(=O)[C@H](Cc2ccc(O)cc2)NC(=O)[C@H](Cc2ccccc2)NC(=O)CSC[C@@H](C(=O)NCC(N)=O)NC(=O)[C@H](CO)NC(=O)[C@H](C(C)C)NC1=O (stereo partly shown) [Compound 1021] ({CH2CO}-FYDWV[Bip]R[NMeA][ξW]RLVSCG-NH2; thioether N-14)
0.14 µM | CC(C)C[C@@H]1NC(=O)[C@H](CCCNC(=N)N)NC(=O)[C@@H](Cc2ccccc2)NC(=O)[C@H](C)N(C)C(=O)[C@H](CCCNC(=N)N)NC(=O)[C@H](Cc2ccc(-c3ccccc3)cc2)NC(=O)[C@H](C(C)C)NC(=O)[C@H](Cc2c[nH]c3ccccc23)NC(=O)[C@H](CC(=O)O)NC(=O)[C@H](Cc2ccc(O)cc2)NC(=O)[C@H](CCC(N)=O)NC(=O)CSC[C@@H](C(=O)NCC(N)=O)NC(=O)[C@H](CO)NC(=O)[C@H](C(C)C)NC1=O [Compound 1023] ({CH2CO}-QYDWV[Bip]R[NMeA][dF]RLVSCG-NH2; thioether N-14)
0.12 µM | CC(C)C[C@@H]1NC(=O)[C@H](CCCNC(=N)N)NC(=O)[C@H](Cc2csc3ccccc23)NC(=O)[C@H](C)N(C)C(=O)[C@H](CCCNC(=N)N)NC(=O)[C@H](Cc2ccc(-c3ccccc3)cc2)NC(=O)[C@H](C(C)C)NC(=O)[C@H](Cc2c[nH]c3ccccc23)NC(=O)[C@H](CC(=O)O)NC(=O)[C@H](Cc2ccc(O)cc2)NC(=O)[C@H](Cc2cnc[nH]2)NC(=O)CSC[C@@H](C(=O)NCC(N)=O)NC(=O)[C@H](CO)NC(=O)[C@H](C(C)C)NC1=O [Compound 1025] ({CH2CO}-HYDWV[Bip]R[NMeA][Bta]RLVSCG-NH2; thioether N-14)
0.21 µM | CC(=O)C[C@@H]1NC(=O)CSC[C@@H](C(=O)NCC(N)=O)NC(=O)[C@H](CO)NC(=O)[C@H](C(C)C)NC(=O)[C@H](CC(C)C)NC(=O)[C@H](CCCNC(=N)N)NC(=O)[C@H](Cc2csc3ccccc23)NC(=O)[C@H](C)N(C)C(=O)[C@H](CCCNC(=N)N)NC(=O)[C@H](Cc2ccc(-c3ccccc3)cc2)NC(=O)[C@H](C(C)C)NC(=O)[C@H](Cc2c[nH]c3ccccc23)NC(=O)[C@H](CC(=O)O)NC(=O)[C@H](Cc2ccc(O)cc2)NC1=O [Compound 1027] ({CH2CO}-[Nva(4-oxo)]YDWV[Bip]R[NMeA][Bta]RLVSCG-NH2; thioether N-14)
0.04 µM | CC(C)C[C@@H]1NC(=O)[C@H](CCCNC(=N)N)NC(=O)[C@@H](CC(C)C)NC(=O)[C@H](C)N(C)C(=O)[C@H](CCCNC(=N)N)NC(=O)[C@H](Cc2ccc(-c3ccccc3)cc2)NC(=O)[C@H](C(C)C)NC(=O)[C@H](Cc2c[nH]c3ccccc23)NC(=O)[C@H](CC(=O)O)NC(=O)[C@H](Cc2ccc(O)cc2)NC(=O)[C@H](CCC(N)=O)NC(=O)CSC[C@@H](C(=O)N[C@@H](C)C(N)=O)NC(=O)[C@H](CO)NC(=O)[C@H](C(C)C)NC1=O [Compound 1029] ({CH2CO}-QYDWV[Bip]R[NMeA][dL]RLVSCA-NH2; thioether N-14)
0.51 µM | CC(C)C[C@@H]1NC(=O)[C@H](CCCNC(=N)N)NC(=O)[C@@H](Cc2ccccc2)NC(=O)[C@H](C)N(C)C(=O)[C@H](CCCNC(=N)N)NC(=O)[C@H](Cc2ccc(-c3ccccc3)cc2)NC(=O)[C@H](C(C)C)NC(=O)[C@H](Cc2c[nH]c3ccccc23)NC(=O)[C@H](CC(=O)O)NC(=O)[C@H](Cc2ccc(O)cc2)NC(=O)[C@H](CC(N)=O)NC(=O)CSC[C@@H](C(=O)NCC(N)=O)NC(=O)[C@H](CO)NC(=O)[C@H](C(C)C)NC1=O [Compound 1032] ({CH2CO}-NYDWV[Bip]R[NMeA][dF]RLVSCG-NH2; thioether N-14)
0.03 µM | CC(C)C[C@@H]1NC(=O)[C@H](CCCNC(=N)N)NC(=O)[C@@H](CC(C)C)NC(=O)[C@H](C)N(C)C(=O)[C@H](CCCNC(=N)N)NC(=O)[C@H](Cc2ccc(-c3ccccc3)cc2)NC(=O)[C@H](C(C)C)NC(=O)[C@H](Cc2c[nH]c3ccccc23)NC(=O)[C@H](CC(=O)O)NC(=O)[C@H](Cc2ccc(O)cc2)NC(=O)[C@H](CC(N)=O)NC(=O)CSC[C@@H](C(=O)N[C@@H](C)C(N)=O)NC(=O)[C@H](CO)NC(=O)[C@H](C(C)C)NC1=O [Compound 1033] ({CH2CO}-NYDWV[Bip]R[NMeA][dL]RLVSCA-NH2; thioether N-14)
0.08 µM | CC(C)C[C@@H]1NC(=O)[C@H](CCCNC(=N)N)NC(=O)[C@@H](CC(C)C)NC(=O)[C@H](C)N(C)C(=O)[C@H](CCCNC(=N)N)NC(=O)[C@H](Cc2ccc(-c3ccccc3)cc2)NC(=O)[C@H](C(C)C)NC(=O)[C@H](Cc2c[nH]c3ccccc23)NC(=O)[C@H](CC(=O)O)NC(=O)[C@H](Cc2ccc(O)cc2)NC(=O)[C@H](Cc2ccccc2)NC(=O)CSC[C@@H](C(=O)N[C@@H](C)C(N)=O)NC(=O)[C@H](CO)NC(=O)[C@H](C(C)C)NC1=O [Compound 1035] ({CH2CO}-FYDWV[Bip]R[NMeA][dL]RLVSCA-NH2; thioether N-14)
